According to patent US20230124862A1, “BISMUTH THIOL COMPOUNDS AND COMPOSITIONS AND METHODS OF TREATING MICROBIAL CO-INFECTIONS” (Microbion Corporation, priority 2020, published 2023):
≈ marks a conversion by molar mass, not a printed value.

Assays:
[1] = Particle size distribution of BisEDT samples vs processing conditions; assay type: physicochemical
[2] = test system: Haemophilus influenzae; test: Broth microdilution MIC, Haemophilus influenzae clinical isolates; assay type: cell-based
[3] = test system: Candida krusei; test: Antifungal broth microdilution (Example 13); assay type: cell-based; conditions: for MIC2: 50% inhibition; for MIC0: complete inhibition
[4] = particle size distribution of BisEDT samples
[5] = C. krusei ATCC 14243, Susceptible
[6] = C. krusei ATCC 96685, Susceptible
[7] = C. krusei MMX 7125, Susceptible
[8] = C. krusei MMX 7128, Susceptible
[9] = C. krusei MMX 7141, Susceptible
[10] = C. krusei MMX 7155, Susceptible
[11] = C. krusei MMX 7563, Susceptible
[12] = C. krusei MMX 9878, MICA-I, VORI-I

| Compound | D(10) ([1]; crystalline BisEDT samples) | D(50) ([1]; crystalline BisEDT samples) | D(90) ([1]; crystalline BisEDT samples) | D[4, 3] ([1]; crystalline BisEDT samples) | D(10) [1, 4] | D(50) [1, 4] | D(90) [1, 4] | D[4, 3] [1, 4] | further results |
| --- | --- | --- | --- | --- | --- | --- | --- | --- | --- |
| C1C[S][Bi]([S]CC[S][Bi]2[S]CC[S]2)[S]1 [Sample 5] | 0.33 μm | 0.72 μm | 1.6 μm | 0.86 μm | 0.33 μm | 0.72 μm | 1.6 μm | 0.86 μm | – |
| C1C[S][Bi]([S]CC[S][Bi]2[S]CC[S]2)[S]1 [Sample 1] | 0.80 μm | 2.4 μm | 5.9 μm | 2.9 μm | 0.80 μm | 2.4 μm | 5.9 μm | 2.9 μm | – |
| C1C[S][Bi]([S]CC[S][Bi]2[S]CC[S]2)[S]1 [Sample 7] | 0.39 μm | 1.3 μm | 1.6 μm | 1.4 μm | 0.39 μm | 1.3 μm | 1.6 μm | 1.4 μm | – |
| CO/N=C(\C(=O)N[C@@H]1C(=O)N2C(C(=O)O)=C(COC(N)=O)CS[C@H]12)c1ccco1 [CFA] | – | – | – | – | – | – | – | – | MIC ([2]; H. influenzae MMX 0797, BLNAR): 4 µg/mL (≈ 9.43 µM); MIC ([2]; H. influenzae MMX 1224 (ATCC 49247)): 4 µg/mL (≈ 9.43 µM); MIC ([2]; H. influenzae MMX 1302): 2 µg/mL (≈ 4.71 µM); MIC ([2]; H. influenzae MMX 1304): 64 µg/mL (≈ 151 µM); MIC ([2]; H. influenzae MMX 1740): 8 µg/mL (≈ 18.9 µM); MIC ([2]; H. influenzae MMX 1741): 4 µg/mL (≈ 9.43 µM); MIC ([2]; H. influenzae MMX 2795, BLNAR): 1 µg/mL (≈ 2.36 µM); MIC ([2]; H. influenzae MMX 2796, BLNAR): 4 µg/mL (≈ 9.43 µM); MIC ([2]; H. influenzae MMX 2798, BLNAR): 4 µg/mL (≈ 9.43 µM); MIC ([2]; H. influenzae MMX 2799, BLNAR): 8 µg/mL (≈ 18.9 µM); MIC ([2]; H. influenzae MMX 5458): 16 µg/mL (≈ 37.7 µM); MIC ([2]; H. influenzae MMX 5461): 8 µg/mL (≈ 18.9 µM); MIC ([2]; H. influenzae MMX 5469): 4 µg/mL (≈ 9.43 µM); MIC ([2]; H. influenzae MMX 5494): 0.5 µg/mL (≈ 1.18 µM); MIC ([2]; H. influenzae MMX 5495): 2 µg/mL (≈ 4.71 µM); MIC ([2]; H. influenzae MMX 5499): 1 µg/mL (≈ 2.36 µM) |
| C1C[S][Bi]([S]CC[S][Bi]2[S]CC[S]2)[S]1 [Sample 10] | 0.36 μm | 0.88 μm | 1.7 μm | 0.97 μm | 0.36 μm | 0.88 μm | 1.7 μm | 0.97 μm | – |
| C1C[S][Bi]([S]CC[S][Bi]2[S]CC[S]2)[S]1 [Sample 3] | 0.59 μm | 1.9 μm | 4.5 μm | 2.3 μm | 0.59 μm | 1.9 μm | 4.5 μm | 2.3 μm | – |
| C1C[S][Bi]([S]CC[S][Bi]2[S]CC[S]2)[S]1 [Sample 11] | 0.38 μm | 1.2 μm | 2.4 μm | 1.4 μm | 0.38 μm | 1.2 μm | 2.4 μm | 1.4 μm | – |
| C1C[S][Bi]([S]CC[S][Bi]2[S]CC[S]2)[S]1 [Sample 12] | 0.37 μm | 1.2 μm | 2.4 μm | 1.3 μm | 0.37 μm | 1.2 μm | 2.4 μm | 1.3 μm | – |
| C1C[S][Bi]([S]CC[S][Bi]2[S]CC[S]2)[S]1 [Sample 2] | 0.58 μm | 1.7 μm | 3.9 μm | 2.0 μm | 0.58 μm | 1.7 μm | 3.9 μm | 2.0 μm | – |
| C1C[S][Bi]([S]CC[S][Bi]2[S]CC[S]2)[S]1 [Sample 15] | 0.32 μm | 0.72 μm | 1.6 μm | 0.86 μm | 0.32 μm | 0.72 μm | 1.6 μm | 0.86 μm | – |
| C1C[S][Bi]([S]CC[S][Bi]2[S]CC[S]2)[S]1 [Sample 13] | 0.36 μm | 0.98 μm | 2.1 μm | 1.2 μm | 0.36 μm | 0.98 μm | 2.1 μm | 1.2 μm | – |
| C1C[S][Bi]([S]CC[S][Bi]2[S]CC[S]2)[S]1 [Sample 14] | 0.36 μm | 1.0 μm | 2.1 μm | 1.2 μm | 0.36 μm | 1.0 μm | 2.1 μm | 1.2 μm | – |
| C1C[S][Bi]([S]CC[S][Bi]2[S]CC[S]2)[S]1 [Sample 8] | 0.36 μm | 1.0 μm | 1.8 μm | 1.0 μm | 0.36 μm | 1.0 μm | 1.8 μm | 1.0 μm | – |
| C1C[S][Bi]([S]CC[S][Bi]2[S]CC[S]2)[S]1 [BisEBT] | – | – | – | – | – | – | – | – | MIC2 ([3]; C. krusei ATCC 6258, MICA-I): 0.5 µg/mL; MIC0 ([3]; C. krusei ATCC 6258, MICA-I): 1 µg/mL; MIC2 [3, 5]: 0.5 µg/mL; MIC0 [3, 5]: 1 µg/mL; MIC2 [3, 6]: 0.25 µg/mL; MIC0 [3, 6]: 0.5 µg/mL; MIC2 [3, 7]: 0.5 µg/mL; MIC0 [3, 7]: 1 µg/mL; MIC2 [3, 8]: 0.5 µg/mL; MIC0 [3, 8]: 1 µg/mL; MIC2 [3, 9]: 0.5 µg/mL; MIC0 [3, 9]: 1 µg/mL; MIC2 ([3]; C. krusei MMX 7153, MICA-R): 0.5 µg/mL; MIC0 ([3]; C. krusei MMX 7153, MICA-R): 1 µg/mL; MIC2 [3, 10]: 0.5 µg/mL; MIC0 [3, 10]: 1 µg/mL; MIC2 [3, 11]: 0.5 µg/mL; MIC0 [3, 11]: 1 µg/mL; MIC2 [3, 12]: 0.5 µg/mL; MIC0 [3, 12]: 1 µg/mL |
| C1C[S][Bi]([S]CC[S][Bi]2[S]CC[S]2)[S]1 [Sample 6] | 0.34 μm | 0.87 μm | 1.8 μm | 0.98 μm | 0.34 μm | 0.87 μm | 1.8 μm | 0.98 μm | – |
| C1C[S][Bi]([S]CC[S][Bi]2[S]CC[S]2)[S]1 [Sample 9] | 0.67 μm | 1.0 μm | 1.9 μm | 1.1 μm | 0.67 μm | 1.0 μm | 1.9 μm | 1.1 μm | – |
| C1C[S][Bi]([S]CC[S][Bi]2[S]CC[S]2)[S]1 [Sample 4] | 0.44 μm | 1.48 μm | 3.1 μm | 1.7 μm | 0.44 μm | 1.48 μm | 3.1 μm | 1.7 μm | – |
